From ChEMBL document CHEMBL1146952, “Synthesis and antibacterial activities of chiral 1,3-oxazinan-2-one derivatives” (2006)
Values after ≈ are worked out from the molar mass of the structure shown. Active and inactive are the calls of the source. No cut-off for these calls is given here.

Legend:
Type in all cases: functional
Staphylococcus aureus [1] = test: Antibacterial activity against Staphylococcus aureus ATCC 43300
Staphylococcus aureus [2] = test: Antibacterial activity against Staphylococcus aureus ATCC 29213
Bacillus subtilis = test: Antibacterial activity against Bacillus subtilis PY79
Enterococcus faecalis = test: Antibacterial activity against Enterococcus faecalis ATCC 29212

Row | SMILES | MIC50 (Staphylococcus aureus [1]) | MIC50 (Staphylococcus aureus [2]) | MIC50 (Bacillus subtilis) | MIC50 (Enterococcus faecalis) | MIC90 (Staphylococcus aureus [1]) | MIC90 (Staphylococcus aureus [2]) | MIC90 (Bacillus subtilis) | MIC90 (Enterococcus faecalis)
1 | CN1C[C@@H](CN(Cc2ccccc2)Cc2ccc(F)c(F)c2)OC1=O | inactive | 119 µg/mL (≈ 344 µM) | 80 µg/mL (≈ 231 µM) | inactive | – | – | – | –
2 | CN1C[C@@H](CN(Cc2ccccc2)Cc2ccc(F)cc2)OC1=O | inactive | inactive | inactive | inactive | – | – | – | –
3 | CCN1CC[C@@H](CN(Cc2ccccc2)Cc2ccc([N+](=O)[O-])cc2)OC1=O | inactive | inactive | inactive | 45 µg/mL (≈ 117 µM) | – | – | – | –
4 | CN1CC[C@@H](CN(Cc2ccccc2)Cc2ccccc2C#N)OC1=O | 180 µg/mL (≈ 515 µM) | 166 µg/mL (≈ 475 µM) | 180 µg/mL (≈ 515 µM) | 59.5 µg/mL (≈ 170 µM) | – | – | – | –
5 | CCN1CC[C@@H](CN(Cc2ccccc2)Cc2ccc(F)cc2F)OC1=O | 50.5 µg/mL (≈ 135 µM) | 45 µg/mL (≈ 120 µM) | 38 µg/mL (≈ 101 µM) | 59.5 µg/mL (≈ 159 µM) | – | – | – | –
6 | O=C(N[C@H](CO)[C@H](O)c1ccc([N+](=O)[O-])cc1)C(Cl)Cl [CHLORAMPHENICOL] | – | – | – | – | 7.44 µg/mL (≈ 23 µM) | 7.44 µg/mL (≈ 23 µM) | 2 µg/mL (≈ 6.19 µM) | 4 µg/mL (≈ 12.4 µM)
7 | CN1CC[C@@H](CN(Cc2ccccc2)Cc2ccc(F)cc2F)OC1=O | 72 µg/mL (≈ 200 µM) | 50 µg/mL (≈ 139 µM) | 55 µg/mL (≈ 153 µM) | 59.5 µg/mL (≈ 165 µM) | – | – | – | –
8 | CN1CC[C@@H](CN(Cc2ccccc2)Cc2ccc(F)cc2)OC1=O | 119 µg/mL (≈ 348 µM) | 87.1 µg/mL (≈ 254 µM) | 95 µg/mL (≈ 277 µM) | 120 µg/mL (≈ 350 µM) | – | – | – | –
9 | CN1CC[C@@H](CN(Cc2ccccc2)Cc2cccc(C#N)c2)OC1=O | 238 µg/mL (≈ 681 µM) | 180 µg/mL (≈ 515 µM) | 180 µg/mL (≈ 515 µM) | 7.4 µg/mL (≈ 21.2 µM) | – | – | – | –
10 | CCN1CC[C@@H](CN(Cc2ccccc2)Cc2ccc3ccccc3c2)OC1=O | inactive | 15 µg/mL (≈ 38.6 µM) | 29 µg/mL (≈ 74.6 µM) | 13 µg/mL (≈ 33.5 µM) | – | – | – | –
11 | CN1C[C@@H](CN(Cc2ccccc2)Cc2ccc(Br)cc2)OC1=O | 59.5 µg/mL (≈ 153 µM) | 20 µg/mL (≈ 51.4 µM) | 22 µg/mL (≈ 56.5 µM) | inactive | – | – | – | –
12 | CCN1CC[C@@H](CN(Cc2ccccc2)Cc2cccc([N+](=O)[O-])c2)OC1=O | 22 µg/mL (≈ 57.4 µM) | 90 µg/mL (≈ 235 µM) | 108 µg/mL (≈ 282 µM) | 47 µg/mL (≈ 123 µM) | – | – | – | –
13 | CCN1CC[C@@H](CN(Cc2ccccc2)Cc2cccc3ccccc23)OC1=O | 35 µg/mL (≈ 90.1 µM) | 10 µg/mL (≈ 25.7 µM) | 7.6 µg/mL (≈ 19.6 µM) | 7.4 µg/mL (≈ 19 µM) | – | 14.9 µg/mL (≈ 38.4 µM) | 30 µg/mL (≈ 77.2 µM) | –
14 | CCN1CC[C@@H](CN(Cc2ccccc2)Cc2ccccc2C)OC1=O | 22.5 µg/mL (≈ 63.8 µM) | 22 µg/mL (≈ 62.4 µM) | 26 µg/mL (≈ 73.8 µM) | 8.1 µg/mL (≈ 23 µM) | – | 29.8 µg/mL (≈ 84.5 µM) | 59.5 µg/mL (≈ 169 µM) | –
15 | CCN1CC[C@@H](CN(Cc2ccccc2)Cc2ccc(F)cc2)OC1=O | 47 µg/mL (≈ 132 µM) | 64 µg/mL (≈ 180 µM) | 42.5 µg/mL (≈ 119 µM) | 35 µg/mL (≈ 98.2 µM) | – | – | – | –
16 | CCN1CC[C@@H](CN(Cc2ccccc2)Cc2cccc(C#N)c2)OC1=O | inactive | 238 µg/mL (≈ 655 µM) | 238 µg/mL (≈ 655 µM) | 45 µg/mL (≈ 124 µM) | – | – | – | –
17 | CCN1CC[C@@H](CN(Cc2ccccc2)Cc2ccccn2)OC1=O | inactive | inactive | inactive | inactive | – | – | – | –
18 | CCN1CC[C@@H](CN(Cc2ccccc2)Cc2ccc(Cl)c(Cl)c2)OC1=O | 6.56 µg/mL (≈ 16.1 µM) | 5.6 µg/mL (≈ 13.7 µM) | 5 µg/mL (≈ 12.3 µM) | inactive | – | 9.85 µg/mL (≈ 24.2 µM) | 7.44 µg/mL (≈ 18.3 µM) | –
19 | CCN1CC[C@@H](CN(Cc2ccccc2)Cc2cccnc2)OC1=O | inactive | inactive | inactive | 238 µg/mL (≈ 701 µM) | – | – | – | –
20 | CCN1CC[C@@H](CN(Cc2ccccc2)Cc2cccc(OC)c2)OC1=O | 90 µg/mL (≈ 244 µM) | 90 µg/mL (≈ 244 µM) | 95 µg/mL (≈ 258 µM) | 80.5 µg/mL (≈ 218 µM) | – | – | – | –

More lines, now with the values ahead:

Row | MIC50 (Staphylococcus aureus [1]) | MIC50 (Staphylococcus aureus [2]) | MIC50 (Bacillus subtilis) | MIC50 (Enterococcus faecalis) | MIC90 (Staphylococcus aureus [1]) | MIC90 (Staphylococcus aureus [2]) | MIC90 (Bacillus subtilis) | MIC90 (Enterococcus faecalis) | SMILES
21 | 59.5 µg/mL (≈ 164 µM) | 180 µg/mL (≈ 495 µM) | 10 µg/mL (≈ 27.5 µM) | 12 µg/mL (≈ 33 µM) | – | – | – | – | CCN1CC[C@@H](CN(Cc2ccccc2)Cc2ccc(C#N)cc2)OC1=O
22 | 119 µg/mL (≈ 344 µM) | 85 µg/mL (≈ 245 µM) | 90 µg/mL (≈ 260 µM) | inactive | – | – | – | – | CN1C[C@@H](CN(Cc2ccccc2)Cc2ccc(F)cc2F)OC1=O
23 | inactive | 81 µg/mL (≈ 219 µM) | 98 µg/mL (≈ 265 µM) | 119 µg/mL (≈ 322 µM) | – | – | – | – | CN1CC[C@@H](CN(Cc2ccccc2)Cc2ccc([N+](=O)[O-])cc2)OC1=O
24 | 21 µg/mL (≈ 53.9 µM) | 18 µg/mL (≈ 46.2 µM) | 22 µg/mL (≈ 56.5 µM) | 7.4 µg/mL (≈ 19 µM) | – | – | – | – | CN1C[C@@H](CN(Cc2ccccc2)Cc2ccccc2Br)OC1=O
25 | inactive | 200 µg/mL (≈ 572 µM) | 238 µg/mL (≈ 681 µM) | 238 µg/mL (≈ 681 µM) | – | – | – | – | CN1CC[C@@H](CN(Cc2ccccc2)Cc2ccc(C#N)cc2)OC1=O
26 | 100 µg/mL (≈ 261 µM) | 72 µg/mL (≈ 188 µM) | 100 µg/mL (≈ 261 µM) | 43 µg/mL (≈ 112 µM) | – | – | – | – | CCN1CC[C@@H](CN(Cc2ccccc2)Cc2ccccc2[N+](=O)[O-])OC1=O
27 | 13 µg/mL (≈ 34.7 µM) | 11.5 µg/mL (≈ 30.7 µM) | 12 µg/mL (≈ 32 µM) | 14.9 µg/mL (≈ 39.8 µM) | – | 14.9 µg/mL (≈ 39.8 µM) | 30 µg/mL (≈ 80.1 µM) | – | CN1CC[C@@H](CN(Cc2ccccc2)Cc2ccc3ccccc3c2)OC1=O
28 | inactive | 179 µg/mL (≈ 485 µM) | 238 µg/mL (≈ 644 µM) | 238 µg/mL (≈ 644 µM) | – | – | – | – | CN1CC[C@@H](CN(Cc2ccccc2)Cc2ccccc2[N+](=O)[O-])OC1=O
29 | 45 µg/mL (≈ 120 µM) | 40 µg/mL (≈ 107 µM) | 43 µg/mL (≈ 115 µM) | 37 µg/mL (≈ 98.8 µM) | – | – | – | – | CCN1CC[C@@H](CN(Cc2ccccc2)Cc2cc(F)cc(F)c2)OC1=O
30 | 180 µg/mL (≈ 495 µM) | 130 µg/mL (≈ 358 µM) | 160 µg/mL (≈ 440 µM) | 33 µg/mL (≈ 90.8 µM) | – | – | – | – | CCN1CC[C@@H](CN(Cc2ccccc2)Cc2ccccc2C#N)OC1=O
31 | inactive | 138 µg/mL (≈ 374 µM) | 238 µg/mL (≈ 644 µM) | 119 µg/mL (≈ 322 µM) | – | – | – | – | CN1CC[C@@H](CN(Cc2ccccc2)Cc2cccc([N+](=O)[O-])c2)OC1=O
32 | 70 µg/mL (≈ 187 µM) | 47 µg/mL (≈ 126 µM) | 77 µg/mL (≈ 206 µM) | 59.5 µg/mL (≈ 159 µM) | – | – | – | – | CCN1CC[C@@H](CN(Cc2ccccc2)Cc2c(F)cccc2F)OC1=O
